Assay results published in US20100261162A1, “Methods of assaying for telomerase activity and compositions related to same” (priority 2005, published 2010).

Molecular target: T1, telomerase (HEK293T cell lysates) (Homo sapiens, UniProt O14746)
T1 construct: effect of TBT oligonucleotide length in HEK293T cell lysates; endogenous in cells; host or cells: HEK293T cell lysate (CHAPS lysis)
Assay: TBT assay, effect of telomerase oligonucleotide template length
Format: biochemical
Conditions: TBT luminescence, short (0.5 repeat), 2.5 repeat and 3.5 repeat oligonucleotides compared
From the text: FIG. 16 illustrates a graphical representation showing the effect of TBT oligonucleotide length in HEK293T cell lysates according to an embodiment of the present invention.
Design of the telomerase-specific oligonucleotide template attached to the magnetic bead is critical for maximizing sensitivity of the TBT assay. The minimal recognition DNA sequence for base-pairing between the RNA component of telomerase and the telomere end is 9 bases—TAGGGTTAG, however, multiple repeats of this sequence more accurately depict the nature of chromosome telomere ends and the scanning nature of enzymes used to achieve accurate base-pair recognition. Telomerase templates include those ranging from 1.5-3 hexameric repeats.
Three forms of the oligonucleotide were tested. A short version containing a partial (0.5) repeat, a slightly longer version containing 2.5 repeats, and a longer version with 3.5 repeats. […] This increased dynamic range is likely to translate into increased sensitivity of the assay.

T1 sequence (O14746 whole entry): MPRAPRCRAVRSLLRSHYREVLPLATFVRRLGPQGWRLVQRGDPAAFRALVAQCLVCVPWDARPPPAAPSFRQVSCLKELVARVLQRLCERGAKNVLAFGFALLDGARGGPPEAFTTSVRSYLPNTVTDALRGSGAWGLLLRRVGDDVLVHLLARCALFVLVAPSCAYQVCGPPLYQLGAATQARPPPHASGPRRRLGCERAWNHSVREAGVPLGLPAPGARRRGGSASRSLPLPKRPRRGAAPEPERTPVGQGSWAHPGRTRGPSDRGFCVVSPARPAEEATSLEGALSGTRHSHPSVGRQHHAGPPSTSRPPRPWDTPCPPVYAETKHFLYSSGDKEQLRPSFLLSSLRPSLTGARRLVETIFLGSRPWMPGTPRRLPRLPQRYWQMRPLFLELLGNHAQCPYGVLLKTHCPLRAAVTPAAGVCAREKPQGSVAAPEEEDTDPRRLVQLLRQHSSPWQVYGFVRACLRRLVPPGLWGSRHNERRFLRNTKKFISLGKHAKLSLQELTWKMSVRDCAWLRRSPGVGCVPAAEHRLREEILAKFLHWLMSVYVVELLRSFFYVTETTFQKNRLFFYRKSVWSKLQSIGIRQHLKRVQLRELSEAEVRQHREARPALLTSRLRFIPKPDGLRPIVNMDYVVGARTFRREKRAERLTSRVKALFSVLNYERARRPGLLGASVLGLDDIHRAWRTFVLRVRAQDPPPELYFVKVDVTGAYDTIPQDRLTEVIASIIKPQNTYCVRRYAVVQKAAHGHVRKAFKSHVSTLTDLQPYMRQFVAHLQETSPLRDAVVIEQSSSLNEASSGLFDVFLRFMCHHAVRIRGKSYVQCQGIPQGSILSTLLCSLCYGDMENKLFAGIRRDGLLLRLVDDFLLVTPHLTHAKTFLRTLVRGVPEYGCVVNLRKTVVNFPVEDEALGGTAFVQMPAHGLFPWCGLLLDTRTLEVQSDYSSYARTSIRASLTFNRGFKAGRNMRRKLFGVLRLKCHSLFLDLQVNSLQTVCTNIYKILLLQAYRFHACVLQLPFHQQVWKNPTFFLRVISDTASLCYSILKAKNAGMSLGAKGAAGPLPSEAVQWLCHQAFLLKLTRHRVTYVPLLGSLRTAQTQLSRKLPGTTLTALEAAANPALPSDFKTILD

## longer version: Long human telomerase recognition nucleotide sequence, 5′ thiol-linked, 3.5 repeats, attached to magnetic bead (DNA TTTTTTAATCCGTCGAGCAGAGTTAGGGTTAGGGTTAGGGTTAGGGTTAG; 5' thiol linker, attached to magnetic bead, further chemistry not given here)
  absolute signal relative to the background signal (no telomerase extract): better absolute signal relative to the background signal
